Test results as given in patent publication US20110053833A1, “SYNTHETIC PEPTIDES AND THEIR USE” (priority 2007, published 2011).

What was measured:
Format in all cases: cell-based
[1] = system: E. coli, S. aureus or C. albicans; experiment: Microbicidal activity, overall comparison with native hLF-derived peptide; conditions: versus HLBD1
Procedure: (§1) The peptides were incubated with E. coli, S. aureus or C. albicans for 2 h in BP. The peptides were diluted in two fold steps starting at 100 μg/ml or 200 μg/ml (C. albicans).

C. albicans = experiment: Microbicidal activity, peptides incubated with C. albicans for 2 h in BP; conditions: 2 h incubation in BP; two fold dilution steps starting at 200 μg/ml
Procedure: as §1

S. aureus = experiment: Microbicidal activity, peptides incubated with S. aureus for 2 h in BP; conditions: 2 h incubation in BP; two fold dilution steps starting at 100 μg/ml
Procedure: as §1

E. coli = experiment: Microbicidal activity, peptides incubated with E. coli for 2 h in BP; conditions: 2 h incubation in BP; two fold dilution steps starting at 100 μg/ml
Procedure: as §1

Substance	microbicidal activity compared with the corresponding peptide derived from the sequence of native hLF [1]	MMC99% C. albicans (C. albicans) [µg/mL]	MMC99% S. aureus (S. aureus) [µg/mL]	MMC99% E. coli (E. coli) [µg/mL]
EATKCFQWKRNMRKVRGPPVSCIKR (EATKCFQWKRNMRKVRGPPVSCIKR; a fragment of human lactoferrin corresponding to aa 16-40 wherein one aa has been substituted) [HLBD1Q24K, synthetic peptide according to the present invention]	considerably higher	50	25	12
EATKCFQWQRNMRKVRGPPVSCIKR (EATKCFQWQRNMRKVRGPPVSCIKR; a fragment of human lactoferrin corresponding to aa 16-40 wherein two aa has been substituted) [HLBD1, reference compound]		200	50	50
